Columns and labels:
[1] = 14 d stability at 37° C. of immunosuppressors in the system suitability solution with different antioxidants (LC-MS/MS peak area); assay type: physicochemical; settings: for Change of content (in words): not adding an antioxidant, system suitability solution and internal standard solution
From the text: (§1) Supernatant was taken and detected by high performance liquid chromatography-tandem mass spectrometry; and a spectrogram of the standard curve at the lowest point was shown in FIG. 1. Specific analysis conditions were as follows: gradient elution was used to an instrumental method; and the tandem mass spectrum: electrospray ionization (ESI) ion source and positive ion Multiple Reaction Monitoring (MRM) Mode were taken.
(§2) Antioxidants included 2,6-di-tert-butyl-p-cresol, vitamin E, vitamin C, β-carotene, and sodium metabisulfite.

[2] = 14 d stability at 37° C. of immunosuppressors in sterile bovine blood with vitamin E at different concentrations; assay type: physicochemical; settings: for Decline of concentration (in words): vitamin E 1.0 mg/mL and 1.5 mg/mL
[3] = 14 d stability at 37° C. of isotope internal standards in the internal standard solution with different antioxidants (LC-MS/MS peak area); assay type: physicochemical
From the text: as §1, §2

[4] = in vitro experiments; cited from earlier work
[5] = 14 d at 37° C., antioxidant 2,6-di-tert-butyl-p-cresol
[6] = 14 d at 37° C., antioxidant Sodium metabisulfite
[7] = 14 d at 37° C., antioxidant Vitamin C
[8] = 14 d at 37° C., antioxidant Vitamin E
[9] = 14 d at 37° C., antioxidant β-carotene
[10] = 14 d at 37° C., free of adding antioxidant
[11] = 14 d at 37° C., vitamin E 0.5 mg/mL
[12] = 14 d at 37° C., vitamin E 1.0 mg/mL
[13] = 14 d at 37° C., vitamin E 1.5 mg/mL
[14] = 14 d at 37° C., antioxidant P-carotene

Row | SMILES | Peak area of system suitability solution [1, 5] | Peak area of system suitability solution [1, 6] | Peak area of system suitability solution [1, 7] | Peak area of system suitability solution [1, 8] | Peak area of system suitability solution [1, 9] | Peak area of system suitability solution [1, 10] | Change of content (in words) ([1]; 14 d at 37° C.) | Peak area of system suitability solution ([1]; Initial values) | Sample detection concentration [2, 11] | Sample detection concentration [2, 12] | Decline of concentration (in words) ([2]; 14 d at 37° C.) | Sample detection concentration [2, 13] | Sample detection concentration ([2]; Initial values) | Peak area of internal standard solution [3, 5] | Peak area of internal standard solution [3, 14] | Peak area of internal standard solution [3, 6] | Peak area of internal standard solution [3, 7] | Peak area of internal standard solution [3, 8] | Peak area of internal standard solution [3, 10] | Peak area of internal standard solution ([3]; Initial values) | also measured
1 | CO[C@H]1C[C@@H]2CC[C@@H](C)[C@@](O)(O2)C(=O)C(=O)N2CCCC[C@H]2C(=O)O[C@H]([C@H](C)C[C@@H]2CC[C@@H](OCCO)[C@H](OC)C2)CC(=O)[C@H](C)/C=C(\C)[C@@H](O)[C@@H](OC)C(=O)[C@H](C)C[C@H](C)/C=C/C=C/C=C/1C [Everolimus] | 3533 | 6256 | 11782 | 98290 | 3599 | 2401 | almost dropped dramatically | 111146 | 62.1 ng/mL | 75.3 ng/mL | no obvious decline | 75.7 ng/mL | 80.1 ng/mL |  |  |  |  |  |  |  | Decrease of concentration [2, 11]: 22.5%
2 | [2H]C([2H])([2H])O[C@H]1C[C@@H]2CC[C@@H](C)[C@@](O)(O2)C(=O)C(=O)N2CCCC[C@H]2C(=O)O[C@H]([C@H](C)C[C@@H]2CC[C@@H](O)[C@H](OC)C2)CC(=O)[C@H](C)/C=C(\C)[C@@H](O)[C@@H](OC)C(=O)[C@H](C)C[C@H](C)/C=C/C=C/C=C/1C [Sirolimus-d3, sirolimus-d3] |  |  |  |  |  |  |  |  |  |  |  |  |  | 7033 | 3308 | 5301 | 6664 | 62889 | 3768 | 71424 | 
3 | C=CC[C@@H]1/C=C(\C)C[C@H](C)C[C@H](OC)[C@H]2O[C@@](O)(C(=O)C(=O)N3CCCC[C@H]3C(=O)O[C@H](/C(C)=C/[C@@H]3CC[C@@H](O)[C@H](OC)C3)[C@H](C)[C@@H](O)CC1=O)[C@H](C)C[C@@H]2OC [Tacrolimus] | 27771 | 8044 | 30470 | 69879 | 8659 | 7408 | almost dropped dramatically | 74430 | 73.3 ng/mL | 80.1 ng/mL | no obvious decline | 79.0 ng/mL | 79.7 ng/mL |  |  |  |  |  |  |  | Immunological competence relative to cyclosporine A [4]: 50-100 times
4 | [2H][13C]([2H])=CC[C@@H]1/C=C(\C)C[C@H](C)C[C@H](OC)[C@H]2O[C@@](O)(C(=O)C(=O)N3CCCC[C@H]3C(=O)O[C@H](/C(C)=C/[C@@H]3CC[C@@H](O)[C@H](OC)C3)[C@H](C)[C@@H](O)C([2H])([2H])C1=O)[C@H](C)C[C@@H]2OC [Tacrolimus-13C-d4, tacrolimus-13C-d4] |  |  |  |  |  |  |  |  |  |  |  |  |  | 28579 | 5494 | 5764 | 25618 | 53397 | 6069 | 60178 | 

Reference: US12135333B2, “Detection kit for detecting immunosuppressors in whole blood by high performance liquid chromatography-tandem mass spectrometry and detection method thereof” (Hangzhou Calibra Diagnostics Co., Ltd., priority 2021, dated 2024)
